# Laboratory results published in ChEMBL document CHEMBL1201862, “PubChem BioAssay data set” (2004).
#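 Grown in 96-well plates, cells were treated for 48 hours with each compound at five concentrations. Insufficient inhibition: endpoint recorded as highest concentration tested. At the GI50, growth is halved.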 Calls of active or inactive are those of the source. No stated cut-off is given here; in the data, active = GI50 up to about 1.1 µM and inactive = higher.
# Columns and labels:
# Test in all cases: NCI tumour cell line growth inhibition, 48 h
# ACHN = tested on: ACHN
# COLO 205 = tested on: COLO 205
# HCT-116 = tested on: HCT-116
# HCT-15 = tested on: HCT-15
# HOP-92 = tested on: HOP-92
# HT-29 = tested on: HT-29
# MDA-MB-435 = tested on: MDA-MB-435
# MOLT-4 = tested on: MOLT-4
# NCI-H522 = tested on: NCI-H522
# OVCAR-3 = tested on: OVCAR-3
# OVCAR-4 = tested on: OVCAR-4
# OVCAR-8 = tested on: OVCAR-8
# RPMI-8226 = tested on: RPMI-8226
# SF-295 = tested on: SF-295
# SK-MEL-28 = tested on: SK-MEL-28
# SNB-19 = tested on: SNB-19
# SW-620 = tested on: SW-620
# T47D = tested on: T47D
# TK-10 = tested on: TK-10
# UACC-62 = tested on: UACC-62
Structure (SMILES),GI50 (ACHN),GI50 (COLO 205),GI50 (HCT-116),GI50 (HCT-15) [µM],GI50 (HOP-92),GI50 (HT-29),GI50 (MDA-MB-435),GI50 (MOLT-4),GI50 (NCI-H522),GI50 (OVCAR-3),GI50 (OVCAR-4),GI50 (OVCAR-8),GI50 (RPMI-8226),GI50 (SF-295),GI50 (SK-MEL-28),GI50 (SNB-19),GI50 (SW-620),GI50 (T47D),GI50 (TK-10),GI50 (UACC-62)
O=[N+]([O-])c1cc(Cl)ccc1Sc1ccccc1,> 100 µM (inactive),> 100 µM (inactive),34.3 µM (inactive),72.3,42.2 µM (inactive),46.8 µM (inactive),> 100 µM (inactive),56.1 µM (inactive),> 100 µM (inactive),> 100 µM (inactive),> 100 µM (inactive),> 100 µM (inactive),> 100 µM (inactive),> 100 µM (inactive),> 100 µM (inactive),> 100 µM (inactive),> 100 µM (inactive),69.5 µM (inactive),> 100 µM (inactive),> 100 µM (inactive)
O=[N+]([O-])C(=C(Cl)Cl)C(Cl)=C(Cl)Cl,0.635 µM (active),0.0368 µM (active),0.0929 µM (active),0.156,0.279 µM (active),0.141 µM (active),0.314 µM (active),0.0166 µM (active),< 0.01 µM (active),0.706 µM (active),0.0847 µM (active),0.619 µM (active),< 0.0176 µM (active),3.06 µM (inactive),0.105 µM (active),4.6 µM (inactive),0.0169 µM (active),0.037 µM (active),0.372 µM (active),0.433 µM (active)
CCCCCC/C=C\CCCCCCCCCc1cccc(O)c1C(=O)O [GINKGOLIC ACID 17:1],> 100 µM (inactive),> 100 µM (inactive),> 100 µM (inactive),32.6,> 100 µM (inactive),> 100 µM (inactive),> 100 µM (inactive),83.8 µM (inactive),> 100 µM (inactive),> 100 µM (inactive),> 100 µM (inactive),> 100 µM (inactive),84.3 µM (inactive),59.3 µM (inactive),> 100 µM (inactive),61.1 µM (inactive),> 100 µM (inactive),> 100 µM (inactive),65 µM (inactive),34 µM (inactive)
CCc1nc(N)nc(N)c1-c1ccc(Cl)cc1 [PYRIMETHAMINE],5.11 µM (inactive),18.9 µM (inactive),6.14 µM (inactive),3.94,21.3 µM (inactive),4.25 µM (inactive),8.36 µM (inactive),4.84 µM (inactive),22.5 µM (inactive),32 µM (inactive),41.6 µM (inactive),5.79 µM (inactive),34.6 µM (inactive),4.44 µM (inactive),> 66.7 µM (inactive),32.8 µM (inactive),5.61 µM (inactive),32.7 µM (inactive),21.7 µM (inactive),4.72 µM (inactive)
CC[N+]1(C)CCC(O)(/C=C/c2ccccc2)C(C(=O)/C=C/c2ccccc2)C1 (stereo not given),11.1 µM (inactive),3.44 µM (inactive),6 µM (inactive),4.54,9.46 µM (inactive),7.59 µM (inactive),12.2 µM (inactive),2.13 µM (inactive),1.99 µM (inactive),9.04 µM (inactive),13.7 µM (inactive),9.1 µM (inactive),0.706 µM (active),16.7 µM (inactive),7.4 µM (inactive),15.3 µM (inactive),2.45 µM (inactive),15.3 µM (inactive),7.28 µM (inactive),16.9 µM (inactive)
COc1ccc(/C=C2\C[C@H]3[C@@H]4CCC5=C[C@@H](N6CCCC6)CC[C@]5(C)[C@H]4CC[C@]3(C)[C@H]2O)cc1,3.29 µM (inactive),1.67 µM (inactive),1.98 µM (inactive),1.4,2.49 µM (inactive),0.728 µM (active),1.93 µM (inactive),2.86 µM (inactive),2.53 µM (inactive),2.64 µM (inactive),3.59 µM (inactive),3.52 µM (inactive),2.97 µM (inactive),2.3 µM (inactive),1.87 µM (inactive),4.61 µM (inactive),2.3 µM (inactive),4.56 µM (inactive),2.43 µM (inactive),1.78 µM (inactive)
O=C1C(Cl)=C(Nc2ccc(OC(F)(F)F)cc2)C(=O)c2c(O)ccc(O)c21,1.45 µM (inactive),1.2 µM (inactive),0.203 µM (active),0.366,0.826 µM (active),0.385 µM (active),0.873 µM (active),0.359 µM (active),0.571 µM (active),0.505 µM (active),1.57 µM (inactive),0.71 µM (active),0.0598 µM (active),1.93 µM (inactive),0.762 µM (active),1.22 µM (inactive),0.891 µM (active),0.417 µM (active),1.48 µM (inactive),0.975 µM (active)
S=P(N1CC1)(N1CC1)N1CC1 [THIOTEPA],14.6 µM (inactive),141 µM (inactive),116 µM (inactive),149,112 µM (inactive),159 µM (inactive),158 µM (inactive),7.69 µM (inactive),101 µM (inactive),169 µM (inactive),188 µM (inactive),110 µM (inactive),176 µM (inactive),33.1 µM (inactive),186 µM (inactive),115 µM (inactive),140 µM (inactive),171 µM (inactive),333 µM (inactive),14.7 µM (inactive)
N/C(S)=N/N=C/c1ccc(N)cn1,1.29 µM (inactive),2.99 µM (inactive),3.98 µM (inactive),5.87,3.44 µM (inactive),4.47 µM (inactive),5.9 µM (inactive),1.95 µM (inactive),3.63 µM (inactive),5.01 µM (inactive),> 10 µM (inactive),3.18 µM (inactive),3.52 µM (inactive),3.52 µM (inactive),> 10 µM (inactive),9.89 µM (inactive),> 10 µM (inactive),6.68 µM (inactive),> 10 µM (inactive),3.19 µM (inactive)
Cc1ccccc1C1=C/C(=C(\SS/C(C(=O)c2ccc(OCC(=O)O)c(Cl)c2Cl)=C2\C=C(c3ccccc3C)SS2)C(=O)c2ccc(OCC(=O)O)c(Cl)c2Cl)SS1,23.2 µM (inactive),12.2 µM (inactive),21.7 µM (inactive),24,5.51 µM (inactive),33.1 µM (inactive),36.1 µM (inactive),19.9 µM (inactive),4.09 µM (inactive),16.5 µM (inactive),21.1 µM (inactive),26.3 µM (inactive),21.5 µM (inactive),31.3 µM (inactive),26.4 µM (inactive),22.5 µM (inactive),26.5 µM (inactive),5.16 µM (inactive),35.9 µM (inactive),18 µM (inactive)
